Results as given in patent publication US5760059A, “Indole derivatives” (Glaxo Wellcome SpA, priority 1993, dated 1998).
Where a name gives a salt, the structure may show the parent alone. Read-outs that look alike come from different tables or passages of the source.

Experiments:
[1] = target: T1, strychnine insensitive glycine binding site (NMDA receptor complex) (Rattus norvegicus, UniProt P35439); experiment: affinity for strychnine insensitive glycine binding site
T1 construct: from tissue

[2] = system: NMDA induced convulsions in mice; experiment: inhibition of NMDA induced convulsions in mice; format: in vivo; settings: Mus musculus, dose to protect 50 % of the animals from NMDA (intracerebroventricular) convulsions
Text: In this test the ability of the compound to inhibit the generalized seizures induced by an intracerebroventricular injection of NMDA in mice was examined at a number of dose levels. […] This expressed as mg/kg is referred to as the ED50 value.

[3] = system: conscious dogs; experiment: adverse effects in conscious dogs; format: in vivo, dog; settings: doses up to 24 mg/kg
Text: (§1) The compounds of the invention are essentially non toxic at therapeutically useful doses.

[4] = system: anaesthetised cats; experiment: adverse effects in anaesthetised cats; format: in vivo, cat; settings: doses up to 24 mg/kg
Text: as §1

[5] = intravenous, read-out: ED50 i.v
[6] = strychnine insensitive glycine binding site, read-out: pKi (converted)

SMILES	Ki [1, 6]	further results
O=C([O-])c1[nH]c2cc(Cl)cc(Cl)c2c1/C=C1\CCN(c2ccccc2)C1=O.[Na+] [Example 3, (E)4,6-dichloro-3-(2oxo-1-phenyl-pyrrolidin-3-ylidenemethyl) -1H-indole-2-carboxylic acid sodium salt]		Ki [1]: 51.3 nM; ED50 [2, 5]: 0.08 mg/kg; ED50 ([2]; oral, read-out: ED50 po): 3.83 mg/kg
O=C(O)c1[nH]c2cc(Cl)cc(Cl)c2c1/C=C1\CCCN(c2ccccc2)C1=O [Example 6, (E)4,6-dichloro-3-(2-oxo-1-phenyI-piperidin-3-ylidenemethyl)-1H-indole-2-carboxylic acid sodium salt]	49 nM	ED50 [2, 5]: 0.09 mg/kg; ED50 ([2]; oral, read-out: ED50 po): 7.5 mg/kg
O=C(O)c1[nH]c2cc(Cl)cc(Cl)c2c1/C=C1\CNN(c2ccccc2)C1=O [Example 8, (E) 4,6-dichloro-3-(5oxy-1-phenyl-pyrazolidin-4ylidenemethyl)-1H-indole-2-carboxylic acid sodium salt]	10 nM	adverse affects when administered [3]: no adverse affects; adverse affects when administered [4]: no adverse affects; ED50 [2, 5]: 0.1 mg/kg; ED50 ([2]; oral, read-out: ED50 po): 1.7 mg/kg
Nc1ccc(N2NC/C(=C\c3c(C(=O)O)[nH]c4cc(Cl)cc(Cl)c34)C2=O)cc1 [Example 10, (E) 4,6dichloro-3-[(5-oxo-1-(4-aminophenyl))pyrazolidin-4-ylidenemethyl]-1H-indole-2-carboxylic acid hydrochloride salt]	14.8 nM	ED50 [2, 5]: 0.1 mg/kg; ED50 ([2]; oral, read-out: ED50 po): 1.7 mg/kg
O=C(O)c1[nH]c2cc(Cl)cc(Cl)c2c1/C=C1\NC(=O)N(c2ccccc2)C1=O [Example 12, (Z) 4,6-Dichloro-3-(2,5dioxo-1-phenyl-imidazolidin-4-ylidenemethyl)-l H-indole-2-carboxylic acid]	37.2 nM	
O=C(O)c1[nH]c2cc(Cl)cc(Cl)c2c1/C=C1/NC(=O)N(c2ccccc2)C1=O [Example 14, (E) 4,6Dichloro-3-(2.5-dioxo-1-phenyl-imidazolidin-4-ylidenemethyl)-1H-indole-2-carboxylic acid]	74.1 nM	
CC(=O)Nc1ccc(N2NCC(=Cc3c(C(=O)O)[nH]c4cc(Cl)cc(Cl)c34)C2=O)cc1 [Example 18, 4.6-Dichloro-3-[5-oxo1-(4-acetylamino-phenyl)-pyrazolidin-4-ylidenemethyl]-1H-indole-2-carboxylic acid]	20 nM	
NC(=O)Nc1ccc(N2NCC(=Cc3c(C(=O)O)[nH]c4cc(Cl)cc(Cl)c34)C2=O)cc1 [Example 20, 4,6-Dichloro-3-[5-oxo-1-(4-ureido-phenyl)-pyrazolidin-4-ylidenemethyl]-1H-indole-2-carboxylic acid]	20.4 nM	
CS(=O)(=O)Nc1ccc(N2NCC(=Cc3c(C(=O)O)[nH]c4cc(Cl)cc(Cl)c34)C2=O)cc1 [Example 22, 4,6Dichloro-3-[1-(4-methylsulfamidophenyl)-5-oxo-pyrazolidin4-ylidenemrthyl]-1H-indole-2-carboxylic acid]	21.9 nM	
CN1C/C(=C\c2c(C(=O)O)[nH]c3cc(Cl)cc(Cl)c23)C(=O)N1c1ccccc1 [Example 23, (E) 3[(2-methyl-5-oxo-1-phenyl)pyrazolidin-4-ylidenemethyl]-4,6-dichloro-1H-indole-2-carboxylic acid]	34.7 nM	
O=C(O)c1[nH]c2cc(Cl)cc(Cl)c2c1C=C1CON(c2ccccc2)C1=O [Example 26, 4,6-Dichloro-3-(3-oxo-2-phenyl-isoxazolidin-4-ylidenemethyl)-1H-indole-2-carboxylic acid]	75.9 nM	
Nc1cccc(N2NC/C(=C\c3c(C(=O)O)[nH]c4cc(Cl)cc(Cl)c34)C2=O)c1 [Example 27, (E) 4,6dichloro-3[(5-oxo-1-(3-aminophenyl))pyrazolidin-4-ylidenemethyl]-1H-indole-2-carboxylic acid hydrochloride salt]	20 nM	
O=C(O)c1[nH]c2cc(Cl)cc(Cl)c2c1/C=C1\CC(=O)N(c2ccccc2)C1=O [Example 28, (E) 4,6dichloro-3-(2.5-dioxo-1-phenyl-pyrrolidin-3-ylidenemethyl)-1H-indole-2-carboxylic acid]	41.7 nM	
O=C(O)c1[nH]c2cc(Cl)cc(Cl)c2c1/C=C1\CNN(c2cccc3ccccc23)C1=O [Example 34, (E) 4,6-dichloro-3(5-oxo-1(1-naphthyl)-pyrazolidin-4-ylidenemethyl)-1H-indole-2-carboxylic acid]	49 nM	
